Measurements taken from patent EP0472783A1, “Anti-tumor compositions and compounds” (PHARMACHEMIE B.V., priority 1990, dated 1992).

How the values were obtained:
Format in all cases: cell-based, human
[1] = system: T24 bladder carcinoma (T cells); assay: PIT method in vitro cell growth inhibition, T24; settings: amount which inhibits 50% of the cell growth
Procedure: (§1) The tests were carried out according to the method of R.van Lambalgen en P. Lelieveld, The PIT method: an automated in vitro technique for drug toxicity testing. Invest.
(§2) The ID50 values in ng/ml for the above compounds were determined according to the above mentioned procedure of van Lambalgen and Lelieveld.

[2] = system: WiDr colon tumor cells (W cells); assay: PIT method in vitro cell growth inhibition, WiDr; settings: amount which inhibits 50% of the cell growth
Procedure: as §1, §2

[3] = system: A 204 rhabdomyosarcoma (A cells); assay: PIT method in vitro cell growth inhibition, A 204; settings: amount which inhibits 50% of the cell growth; A 204 cells
Procedure: as §1, §2

[4] = system: IgR-37 melanoma (Z cells); assay: PIT method in vitro cell growth inhibition, IgR-37; settings: amount which inhibits 50% of the cell growth; IgR-37 cells
Procedure: as §1, §2

[5] = system: MCF-7 mammary carcinoma (M cells); assay: PIT method in vitro cell growth inhibition, MCF-7; settings: amount which inhibits 50% of the cell growth; MCF-7 cells
Procedure: as §1, §2

N.N.[Cl][Pt][Cl] [cis platium, cis-(NH3)2PtCl2]
ID50 values in ng/ml T24 [1]: 268 ng/mL | ID50 values in ng/ml WiDr [2]: 624 ng/mL | ID50 values in ng/ml A 204 [3]: 871 ng/mL | ID50 values in ng/ml IgR-37 [4]: 878 ng/mL | ID50 values in ng/ml MCF-7 [5]: 850 ng/mL
